The NIST ThermoML archive (doi:10.1021/je400332j)
Numbers after ± are expanded uncertainties.

Assay: xn = mol fraction of the nth substance listed
Conditions: 101 kPa, Liquid; for viscosity: Concentric cylinders viscometry; for mass density: Vibrating tube method

CCCCCCn1cc[n+](C)c1.F[B-](F)(F)F [1-hexyl-3-methylimidazolium tetrafluoroborate] + CCn1cc[n+](C)c1.F[B-](F)(F)F
Conditions	mass density [kg/m3]	viscosity [mPa·s]
293.15 K, x2 = 0	1147.5 ± 1.1	280.4 ± 23
293.15 K, x2 = 0.1009	1157.3 ± 1.1	244.3 ± 20
293.15 K, x2 = 0.2005	1168.1 ± 1.1	210.7 ± 17
293.15 K, x2 = 0.3003	1179.5 ± 1.1	179.6 ± 15
293.15 K, x2 = 0.4001	1191.4 ± 1.1	151.7 ± 12
293.15 K, x2 = 0.4999	1204.3 ± 1.1	127.1 ± 10
293.15 K, x2 = 0.6007	1218.1 ± 1.1	105 ± 8.5
293.15 K, x2 = 0.7004	1232.7 ± 1.1	86.22 ± 7
293.15 K, x2 = 0.8001	1248.5 ± 1.1	69.78 ± 5.6
293.15 K, x2 = 0.8998	1265.3 ± 1.1	56.02 ± 4.5
298.15 K, x2 = 0	1144.1 ± 1.1	206.3 ± 17
298.15 K, x2 = 0.1009	1153.9 ± 1.1	180.8 ± 15
298.15 K, x2 = 0.2005	1164.7 ± 1.1	157.2 ± 13
298.15 K, x2 = 0.3003	1176.1 ± 1.1	135.1 ± 11
298.15 K, x2 = 0.4001	1188 ± 1.1	115.2 ± 9.4
298.15 K, x2 = 0.4999	1200.8 ± 1.1	97.48 ± 7.9
298.15 K, x2 = 0.6007	1214.6 ± 1.1	81.5 ± 6.6
298.15 K, x2 = 0.7004	1229.1 ± 1.1	67.79 ± 5.5
298.15 K, x2 = 0.8001	1244.9 ± 1.1	55.7 ± 4.5
298.15 K, x2 = 0.8998	1261.7 ± 1.1	45.42 ± 3.7
303.15 K, x2 = 0	1140.6 ± 1	154.9 ± 13
303.15 K, x2 = 0.1009	1150.5 ± 1.1	136.9 ± 11
303.15 K, x2 = 0.2005	1161.2 ± 1.1	119.8 ± 9.8
303.15 K, x2 = 0.3003	1172.5 ± 1.1	103.8 ± 8.4
303.15 K, x2 = 0.4001	1184.4 ± 1.1	89.33 ± 7.2
303.15 K, x2 = 0.4999	1197.2 ± 1.1	76.33 ± 6.2
303.15 K, x2 = 0.6007	1211 ± 1.1	64.52 ± 5.2
303.15 K, x2 = 0.7004	1225.5 ± 1.1	54.31 ± 4.4
303.15 K, x2 = 0.8001	1241.2 ± 1.1	45.2 ± 3.6
303.15 K, x2 = 0.8998	1257.9 ± 1.1	37.38 ± 3
308.15 K, x2 = 0	1137.2 ± 1	118.7 ± 9.7
308.15 K, x2 = 0.1009	1147.1 ± 1.1	105.5 ± 8.6
308.15 K, x2 = 0.2005	1157.8 ± 1.1	92.98 ± 7.5
308.15 K, x2 = 0.3003	1169 ± 1.1	81.23 ± 6.6
308.15 K, x2 = 0.4001	1180.9 ± 1.1	70.51 ± 5.7
308.15 K, x2 = 0.4999	1193.6 ± 1.1	60.8 ± 4.9
308.15 K, x2 = 0.6007	1207.4 ± 1.1	51.94 ± 4.2
308.15 K, x2 = 0.7004	1221.8 ± 1.1	44.18 ± 3.6
308.15 K, x2 = 0.8001	1237.5 ± 1.1	37.22 ± 3
308.15 K, x2 = 0.8998	1254.2 ± 1.1	31.18 ± 2.5
313.15 K, x2 = 0	1133.7 ± 1	92.56 ± 7.5
313.15 K, x2 = 0.1009	1143.6 ± 1.1	82.73 ± 6.7
313.15 K, x2 = 0.2005	1154.3 ± 1.1	73.45 ± 5.9
313.15 K, x2 = 0.3003	1165.5 ± 1.1	64.64 ± 5.2
313.15 K, x2 = 0.4001	1177.4 ± 1.1	56.57 ± 4.6
313.15 K, x2 = 0.4999	1190.1 ± 1.1	49.22 ± 4
313.15 K, x2 = 0.6007	1203.8 ± 1.1	42.45 ± 3.4
313.15 K, x2 = 0.7004	1218.2 ± 1.1	36.47 ± 2.9
313.15 K, x2 = 0.8001	1233.8 ± 1.1	31.06 ± 2.5
313.15 K, x2 = 0.8998	1250.4 ± 1.1	26.32 ± 2.1
318.15 K, x2 = 0	1130.3 ± 1	73.37 ± 5.9
318.15 K, x2 = 0.1009	1140.3 ± 1	65.95 ± 5.3
318.15 K, x2 = 0.2005	1150.9 ± 1.1	58.94 ± 4.8
318.15 K, x2 = 0.3003	1162 ± 1.1	52.24 ± 4.2
318.15 K, x2 = 0.4001	1173.9 ± 1.1	46.08 ± 3.7
318.15 K, x2 = 0.4999	1186.5 ± 1.1	40.41 ± 3.3
318.15 K, x2 = 0.6007	1200.2 ± 1.1	35.16 ± 2.8
318.15 K, x2 = 0.7004	1214.6 ± 1.1	30.49 ± 2.4
318.15 K, x2 = 0.8001	1230.1 ± 1.1	26.23 ± 2.1
318.15 K, x2 = 0.8998	1246.7 ± 1.1	22.48 ± 1.8
323.15 K, x2 = 0	1127 ± 1	59.03 ± 4.8
323.15 K, x2 = 0.1009	1136.9 ± 1	53.34 ± 4.3
323.15 K, x2 = 0.2005	1147.4 ± 1.1	47.98 ± 3.9
323.15 K, x2 = 0.3003	1158.5 ± 1.1	42.8 ± 3.4
323.15 K, x2 = 0.4001	1170.4 ± 1.1	38.02 ± 3.1
323.15 K, x2 = 0.4999	1183 ± 1.1	33.6 ± 2.7
323.15 K, x2 = 0.6007	1196.6 ± 1.1	29.48 ± 2.4
323.15 K, x2 = 0.7004	1211 ± 1.1	25.79 ± 2.1
323.15 K, x2 = 0.8001	1226.4 ± 1.1	22.4 ± 1.8
323.15 K, x2 = 0.8998	1242.9 ± 1.1	19.38 ± 1.6
328.15 K, x2 = 0	1123.6 ± 1	48.16 ± 3.9
328.15 K, x2 = 0.1009	1133.5 ± 1	43.73 ± 3.5
328.15 K, x2 = 0.2005	1144 ± 1.1	39.57 ± 3.2
328.15 K, x2 = 0.3003	1155.1 ± 1.1	35.51 ± 2.9
328.15 K, x2 = 0.4001	1166.9 ± 1.1	31.77 ± 2.6
328.15 K, x2 = 0.4999	1179.4 ± 1.1	28.27 ± 2.3
328.15 K, x2 = 0.6007	1192.9 ± 1.1	25.02 ± 2
328.15 K, x2 = 0.7004	1207.4 ± 1.1	22.05 ± 1.8
328.15 K, x2 = 0.8001	1222.7 ± 1.1	19.31 ± 1.6
328.15 K, x2 = 0.8998	1239.2 ± 1.1	16.85 ± 1.4
333.15 K, x2 = 0	1120.2 ± 1	39.71 ± 3.2
333.15 K, x2 = 0.1009	1130.1 ± 1	36.3 ± 2.9
333.15 K, x2 = 0.2005	1140.6 ± 1.1	33.02 ± 2.7
333.15 K, x2 = 0.3003	1151.6 ± 1.1	29.82 ± 2.4
333.15 K, x2 = 0.4001	1163.4 ± 1.1	26.83 ± 2.2
333.15 K, x2 = 0.4999	1176 ± 1.1	24.04 ± 1.9
333.15 K, x2 = 0.6007	1189.5 ± 1.1	21.41 ± 1.7
333.15 K, x2 = 0.7004	1203.8 ± 1.1	19.03 ± 1.5
333.15 K, x2 = 0.8001	1219.1 ± 1.1	16.8 ± 1.4
333.15 K, x2 = 0.8998	1235.6 ± 1.1	14.78 ± 1.2
338.15 K, x2 = 0	1116.8 ± 1	33.21 ± 2.7
338.15 K, x2 = 0.1009	1126.7 ± 1	30.47 ± 2.4
338.15 K, x2 = 0.2005	1137.2 ± 1	27.86 ± 2.2
338.15 K, x2 = 0.3003	1148.2 ± 1.1	25.3 ± 2
338.15 K, x2 = 0.4001	1160 ± 1.1	22.92 ± 1.8
338.15 K, x2 = 0.4999	1172.5 ± 1.1	20.64 ± 1.7
338.15 K, x2 = 0.6007	1186 ± 1.1	18.52 ± 1.5
338.15 K, x2 = 0.7004	1200.2 ± 1.1	16.56 ± 1.3
338.15 K, x2 = 0.8001	1215.5 ± 1.1	14.73 ± 1.2
338.15 K, x2 = 0.8998	1231.9 ± 1.1	13.05 ± 1.1
343.15 K, x2 = 0	1113.4 ± 1	28.03 ± 2.3
343.15 K, x2 = 0.1009	1123.4 ± 1	25.82 ± 2.1
343.15 K, x2 = 0.2005	1133.8 ± 1	23.74 ± 1.9
343.15 K, x2 = 0.3003	1144.8 ± 1.1	21.65 ± 1.7
343.15 K, x2 = 0.4001	1156.5 ± 1.1	19.72 ± 1.6
343.15 K, x2 = 0.4999	1169 ± 1.1	17.89 ± 1.4
343.15 K, x2 = 0.6007	1182.4 ± 1.1	16.11 ± 1.3
343.15 K, x2 = 0.7004	1196.7 ± 1.1	14.52 ± 1.2
343.15 K, x2 = 0.8001	1212 ± 1.1	13 ± 1.1
343.15 K, x2 = 0.8998	1228.3 ± 1.1	11.6 ± 0.93
